According to patent US20120070493A1, “TARGETED MULTI-EPITOPE DOSAGE FORMS FOR INDUCTION OF AN IMMUNE RESPONSE TO ANTIGENS” (Selecta Biosciences, Inc., priority 2010, published 2012):
Square brackets hold non-standard residues; d marks the D form. Ends that are not written are not given here.

Legend:
[1] = system: MHC Class II (HLADP, HLADQ and HLADR alleles); conditions: previously described peptide, Virology 326 (2004) 220-230; cited from earlier work
[2] = system: CD4+/CD45RAlow/CD62Lhigh central memory T-cells; test: dendritic cell/CD4 T-cell co-culture, multi-color intracellular cytokine analysis; format: cell-based, human; conditions: for co-expression of TNF-α and IFN-γ / co-expression of TNF-α and IL-4: multiple color flow cytometry, FIG. 9; for IFN-γ expression in peptide specific central memory T-cells / IL-4 expression in peptide specific central memory T-cells / TNF-α expression in peptide specific central memory T-cells: DC/CD4 co-culture with or without peptide, FIGS. 7 and 8
Procedure: Early central memory T-cells express multiple cytokines (IL-2, TNF-α, IFN-γ) when re-activated with specific peptides, whereas committed effector memory T-cells are thought to selectively express IL-4 for TH2 committed effector memory, and IFN-γ for TH1 committed effector memory. The status of peptide activated memory T-cells was tested using multi-color intracellular cytokine analysis of dendritic cell/CD4 cell co-cultures.
Human peripheral blood monocytes were isolated using negative-selection magnetic beads (Dynal) and cultured in the presence of GM-CSF and IL-4 for 1 week in order to induce differentiation into dendritic cells. Allogeneic CD4 T cells were isolated using magnetic bead separation (Dynal) and co-cultured in the presence of DCs in the presence or absence of peptide. The protocol for stimulation and analysis from that point is identical to that for PBMC described above in Example 2.

human PBMC = test: interferon gamma Elispot, peptide-stimulated PBMC; format: cell-based; conditions: 10 μM peptide; for memory T-cell response (IFN-γ Elispot spots, normalized to non-stimulated controls): 18 hours, 5 donors, FIG. 22; for number of donors showing a recall: out of 5 donors
Procedure: The potency of single epitopes and chimeric epitopes have been evaluated by stimulating human PBMC with peptides in vitro for 18 hours and then analyzing the cells by Elispot. Briefly, whole blood was obtained from Research Blood Components (Cambridge). Blood was diluted in phosphate buffered saline (PBS) and then overlaid on top of Ficoll-paque premium (GE Healthcare) in a 50 mL tube. Tubes were spun for 30 minutes, and the transition phase PBMCs collected, diluted in PBS with 10% fetal calf serum (FCS) and spun for 10 minutes. Cells were resuspended in cell freezing media (Sigma) and immediately frozen at −80 C overnight. For long term storage, cells were transferred to liquid nitrogen. Cells were thawed as needed and resuspended in PBS 10% FCS, spun down and resuspended to 1×10^7 cells/mL in culture media (RPMI [cellgro]), supplemented with 10% heat inactivated fetal calf serum (Sigma) l-glutamine, penicillin and streptomycin).
The Elispot assay was performed using an interferon gamma Elispot kit (Mabtech). Briefly the Elispot was performed by coating 96 well filter plates with an IFN-γ capture antibody, then blocked with complete culture media containing 10% FCS to prevent non-specific binding. PBMC (1×10^6 cells) were plated in the antibody pre-coated Elispot plates with or without 10 μM peptide. Positive control wells were stimulated with 10 μg/mL PHA. Elispot plates were incubated for 18 hours at 37° C. followed by coating with biotinylated anti-IFN-γ secondary antibody for 2 hours at room temperature. Elispot plates were then washed and IFN-γ spots developed using 3-amino-9-ethylcarbazole, dimethylformamide, and hydrogen peroxide in acetate buffer. IFN-γ positive Elispot counts were evaluated by an outside vendor (Zelnet) and the number of spots scored per 10 million cells.

[3] = system: CD4+/CD45RAlow/CD62Lhigh central memory T-cells (human PBMC); format: cell-based; conditions: for memory T-cell recall response, influenza epitopes: 5 PBMC donors, FIG. 14; for response of individual peptides and of heterodimeric peptides lacking a cathepsin cleavage site, compared with the response to this peptide: 4 donors, the comparators were the weaker ones, not the labelled peptide

DFHFEVFNFVPCSI [RSVG162-175]
Affinity (HLA Class II type bound) [1]: (HLADP)

ILMQYIKANSKFIGIQSIALSSLMVAQ [TT830DTt]
co-expression of TNF-α and IFN-γ [2]: peptide induced co-expression | co-expression of TNF-α and IL-4 [2]: not co-expression

VSTYMLTNSELLSLINDkvsvrAGFYHILNNPKASL [VSTkAGF]
memory T-cell response (IFN-γ Elispot spots, normalized to non-stimulated controls) (human PBMC): highest memory T-cell response | number of donors showing a recall (human PBMC): 5 donors

TLLYVLFEVPMGLPILMQYIKANSKFIGI [AdVpTT830]
effect of insertion of a cathepsin cleavage site on activity of the AdV epitope ([3]; human PBMC, 4 μM peptide): eliminated activity of the AdV epitope

VWLYNQIALQLKNHAkvsvrAGFYHILNNPKASL [VWLkAGF]
memory T-cell response (IFN-γ Elispot spots, normalized to non-stimulated controls) (human PBMC): highest memory T-cell response | number of donors showing a recall (human PBMC): 5 donors

ILSIYSTVASSLALAIkvsvrLIFLARSALILR [ABW2kAAT]
memory T-cell recall response, influenza epitopes ([3]; 4 μM peptide): positive

TLLYVLFEVkvsvr NNFTVSFWLRVPKVSASHLET (TLLYVLFEV[dK][dV][dS][dV][dR]NNFTVSFWLRVPKVSASHLET) [AdVkTT950]
response of individual peptides and of heterodimeric peptides lacking a cathepsin cleavage site, compared with the response to this peptide ([3]; 4 μM peptide): weaker response

NAELLVALENQHTIkvsvrLIFLARSALILR (NAELLVALENQHTIKVSVRLIFLARSALILR) [3120tkAAT]
memory T-cell recall response, influenza epitopes ([3]; 4 μM peptide): positive

ILMQYIKANSKFIGI QSIALSSLMVAQTLLYVLFEV (ILMQYIKANSKFIGIQSIALSSLMVAQTLLYVLFEV) [TT830DTAdV]
number of donors showing a recall response [3]: 4 donors

EKIVLLFAIVSLVKSDQICI [ABW9]
memory T-cell recall response, influenza epitopes ([3]; 4 μM peptide): not

ILMQYIKANSKFIGIQSIALSSLMVAQAIPLVGEL [TT830DT]
IFN-γ expression in peptide specific central memory T-cells [2]: increased expression | IL-4 expression in peptide specific central memory T-cells [2]: not IL-4 | TNF-α expression in peptide specific central memory T-cells [2]: increased expression

LIFLARSALILRkvsvrILSIYSTVASSLALAI [AATkABW2]
memory T-cell recall response, influenza epitopes ([3]; 4 μM peptide): positive

ILMQYIKANSKFIGIPMGLPQSIALSSLMVAQ [TT830pmglpDTt]
IFN-γ expression in peptide specific central memory T-cells [2]: increased expression | IL-4 expression in peptide specific central memory T-cells [2]: not IL-4 | TNF-α expression in peptide specific central memory T-cells [2]: increased expression | co-expression of TNF-α and IFN-γ [2]: peptide induced co-expression | co-expression of TNF-α and IL-4 [2]: not co-expression | effect of inclusion of a cathepsin cleavage site on the response, compared with TT830DTt ([3]; human PBMC, 4 μM peptide): enhanced the response | recall activity compared with identical peptide without cleavage site (TT830DT) ([3]; human PBMC, 4 μM peptide): better than a peptide identical except without a cleavage site (TT830DT) | recall activity compared with individual components TT830 and DT alone ([3]; human PBMC, 4 μM peptide): more active than its individual components (TT830 and DT) alone | number of activated central memory T-cells (percent CD62L+/IFN-γ+ cells, normalized to non-stimulated) ([3]; human PBMC, 4 μM peptide, 20 donors, FIG. 5): highest response | number of donors positive for memory T-cells responding to peptide ([3]; out of 20 donors, positive if greater than 0.08% responding central memory T-cells, FIG. 6): 20/20

TLLYVLFEVkvsvrQSIALSSLMVAQ (TLLYVLFEV[dK][dV][dS][dV][dR]QSIALSSLMVAQ) [AdVkDTt]
response of individual peptides and of heterodimeric peptides lacking a cathepsin cleavage site, compared with the response to this peptide ([3]; 4 μM peptide): weaker response

CSQRSKFLLMDALKLkvsvrLIFLARSALILR [AAWkAAT]
memory T-cell recall response, influenza epitopes ([3]; 4 μM peptide): positive
